Data as given in US20220305019A1, “PARAXANTHINE-BASED COMPOSITIONS FOR PROMOTING WEIGHT LOSS” (Ingenious Ingredients, LP, priority 2021, published 2022).

Test: Confidence visual analog scale (VAS) after oral ingestion, crossover, two participants
Format: in vivo, human
Design: Confidence (Visual Analog Scale) / Confidence VAS MEAN: scale not given here
Details: 100 mg PX
Procedure: All supplements were orally ingested with 8 fluid ounces of cold tap water. The order of administration for all interventions was randomized using a random allocation software to ensure randomization and to avoid order effects. After ingestion, participants completed all assessments in an identical fashion 30, 60, 90, 120, and 180 minutes after ingestion of their assigned supplement. All study visits took place between 0600-1000 hours. At least 72 hours of rest took place between each condition.

SMILES: Cn1c(=O)[nH]c2ncn(C)c2c1=O [PX, paraxanthine]
- effect on confidence: failed to increase confidence
- Confidence (Visual Analog Scale) (30 min, person one): 70
- Confidence (Visual Analog Scale) (30 min, person two): 70
- Confidence (Visual Analog Scale) (60 min, person one): 80
- Confidence (Visual Analog Scale) (60 min, person two): 70
- Confidence (Visual Analog Scale) (90 min, person one): 89
- Confidence (Visual Analog Scale) (90 min, person two): 65
- Confidence (Visual Analog Scale) (120 min, person one): 81
- Confidence (Visual Analog Scale) (120 min, person two): 75
- Confidence (Visual Analog Scale) (180 min, person one): 90
- Confidence (Visual Analog Scale) (180 min, person two): 70
- Confidence VAS MEAN (Average of both): 76.0
- Confidence VAS MEAN (person one): 82.0
- Confidence VAS mean Δ vs. PLA (person one): +0.6
- Confidence VAS MEAN (person two): 70.0
- Confidence VAS mean Δ vs. PLA (person two): −1.0
